Source: US11807625B2, “Capsid inhibitors for the prevention of HIV” (Gilead Sciences, Inc., priority 2019, dated 2023)
Where two headings read alike, the source gives them in different places.

Assay: PK of compound of Formula (Ia) after single subcutaneous dose of solution formulations in beagle dogs
Type: in vivo
Procedure: Formulations containing the compound of Formula (Ia), or a pharmaceutically acceptable salt thereof, were prepared as solutions and optionally administered subcutaneously or intramuscularly to rats, rabbits, and/or dogs.
(§1) A solution of about 400 mg/mL of the compound of Formula (Ia) having 17.00 w/w % water, 36.40 w/w % PEG 300, 35.20 w/w % of a sodium salt of a compound of Formula (Ia), 5.00 w/w % ethanol, and 6.40 w/w % poloxamer 188 was prepared. The solution was administered subcutaneously to male beagle dogs at a dose level of about 12 mg/kg and male Wistar Han rats at a dose level of about 50 mg/kg. The pharmacokinetic profiles were determined, and the results for dogs are summarized in Table and Table, while the results for rats are summarized in Table and Table below.
as §1, with “500” for “400”, “14.06” for “17.00”, “30.12” for “36.40”
A solution of about 300 mg/mL of the compound of Formula (Ia) having 23.33 w/w % water, 48.99 w/w % PEG 300, 26.47 w/w % of a sodium salt of a compound of Formula (Ia), and 1.21 w/w % poloxamer 188 was prepared. The solution was administered subcutaneously to male beagle dogs at a dose level of about 6 mg/kg and male Wistar Han rats at a dose level of about 50 mg/kg. The pharmacokinetic profiles were determined, and the results for dogs are summarized in Table and Table, while the results for rats are summarized in Table and Table below.
as §1, with “18.80” for “17.00”, “40.25” for “36.40”, “34.38” for “35.20”, “1.57” for “6.40”
as §1, with “500” for “400”, “16.29” for “17.00”, “34.88” for “36.40”, “41.92” for “35.20”, “1.91” for “6.40”
as §1, with “20.90” for “17.00”, “44.72” for “36.40”, “and 34.38” for “35.20”, “(Ia)” for “(Ia), 5.00 w/w % ethanol, and 6.40 w/w % poloxamer 188”
A solution of about 400 mg/mL of the compound of Formula (Ia) having 19.90 w/w % water, 42.59 w/w % PEG 300, 34.38 w/w % of a sodium salt of a compound of Formula (Ia), and 3.13 w/w % poloxamer 188 was prepared. The solution was administered subcutaneously to male beagle dogs at a dose level of about 12 mg/kg and male Wistar Han rats at a dose level of about 50 mg/kg. […]

[1] = male, beagle, dog, plasma, sc, 6 mg/kg, individual dogs, SC 6 mg/kg, solution V, 300 mg/mL
[2] = male, beagle, dog, plasma, sc, 6 mg/kg, mean, n = 3 dogs, SC 6 mg/kg, solution V, 300 mg/mL
[3] = male, beagle, dog, plasma, sc, 6 mg/kg, mean ± SD, n = 3 dogs, SC 6 mg/kg, solution V, 300 mg/mL

Plasma concentration (beagle dogs, SC 12 mg/kg, 400 mg/mL solution W (5.00% ethanol, 1.57% poloxamer 188), 1.00 h, animals #1-#3): BLQ
concentration at 3 h [1]: 2.26 nM
concentration at 3 h (male, beagle, dog, plasma, sc, 6 mg/kg, mean (dog #2 BLQ), SC 6 mg/kg, solution V, 300 mg/mL): 2.75 nM
concentration at 8 h [1]: 8.26 nM
concentration at 8 h [2]: 10.4 nM
concentration at 24 h [1]: 22.3 nM
concentration at 24 h [2]: 23.5 nM
concentration at 48 h [1]: 37.1 nM
concentration at 48 h [2]: 31.5 nM
concentration at 72 h [1]: 32.8 nM
concentration at 72 h [2]: 31.3 nM
concentration at 96 h [1]: 39.5 nM
concentration at 96 h [2]: 32.6 nM
concentration at 168 h [1]: 41.8 nM
concentration at 168 h [2]: 39.2 nM
concentration at 336 h [1]: 99.2 nM
concentration at 336 h [2]: 129 nM
concentration at 504 h [1]: 122 nM
concentration at 504 h [2]: 151 nM
concentration at 672 h [1]: 95.3 nM
concentration at 672 h [2]: 122 nM
concentration at 840 h [1]: 53.3 nM
concentration at 840 h [2]: 58.9 nM
concentration at 1008 h [1]: 29.1 nM
concentration at 1008 h [2]: 30.2 nM
concentration at 1344 h [1]: 26.9 nM
concentration at 1344 h [2]: 23.8 nM
concentration at 1680 h [1]: 13.7 nM
concentration at 1680 h [2]: 12.3 nM
concentration at 2016 h (male, beagle, dog, plasma, sc, 6 mg/kg, 2016 h, mean, n = 3 dogs, SC 6 mg/kg, solution V, 300 mg/mL): 8.5 nM
concentration at 2352 h [1]: 4.5 nM
concentration at 2352 h [2]: 4.7 nM
concentration at 2688 h [1]: 2.1 nM
concentration at 2688 h [2]: 2.7 nM
concentration at 3024 h [1]: 2.5 nM
concentration at 3024 h [2]: 2.3 nM
concentration at 3360 h [1]: 1.5 nM
concentration at 3360 h [2]: 1.3 nM
AUC(0-inf) [3]: 113 ± 12 µM·h
Cmax [3]: 155 ± 30 nM
Tmax [3]: 18.7 ± 4.04 days
half-life [3]: 25.5 days
AUC(0-t) (male, beagle, dog, plasma, sc, 6 mg/kg, mean ± SD, n = 3 dogs, SC 6 mg/kg, solution V, 300 mg/mL, read-out: AUC0-24 h): 0.304 ± 0.028 µM·h
AUC(0-t) (male, beagle, dog, plasma, sc, 6 mg/kg, mean ± SD, n = 3 dogs, SC 6 mg/kg, solution V, 300 mg/mL, read-out: AUC0-168 h): 5.07 ± 0.5 µM·h
AUC(0-t) (male, beagle, dog, plasma, sc, 6 mg/kg, mean ± SD, n = 3 dogs, SC 6 mg/kg, solution V, 300 mg/mL, read-out: AUC0-672 h): 65.6 ± 9.9 µM·h
AUC(0-t) (male, beagle, dog, plasma, sc, 6 mg/kg, mean ± SD, n = 3 dogs, SC 6 mg/kg, solution V, 300 mg/mL, read-out: AUC0-1344 h): 97.4 ± 12.7 µM·h
AUC(0-t) (male, beagle, dog, plasma, sc, 6 mg/kg, mean ± SD, n = 3 dogs, SC 6 mg/kg, solution V, 300 mg/mL, read-out: AUC0-1680 h): 103 ± 12 µM·h
SMILES: CC(C)(C#Cc1ccc(-c2ccc(Cl)c3c(NS(C)(=O)=O)nn(CC(F)(F)F)c23)c([C@H](Cc2cc(F)cc(F)c2)NC(=O)Cn2nc(C(F)(F)F)c3c2C(F)(F)[C@@H]2C[C@H]32)n1)S(C)(=O)=O [compound of Formula (Ia)]
